From patent US20240100125A1 (ENYO PHARMA, priority 2021, published 2024)

Key:
HBV [1] = test: 4-week treatment course in HBV chronically infected patients: HBV replication markers (pgRNA, HBcrAg, HBsAg); format: in vivo, human
[2] = Pruritus under EYP001 once a day versus twice a day in combined treatment with IFN-α; format: in vivo, human; conditions: EYP001 once a day rather than twice a day
Method: Therefore, in a particular aspect, the FXR agonist is administered once a day.

FXR = FXR engagement markers (C4, FGF19) in HBV chronically infected patients; format: in vivo, human; conditions: all EYP001 doses; data not shown
HBV [3] = conditions: chronic hepatitis B patients; cited from earlier work
[4] = tested on: HBV infected primary human hepatocytes (PHH); test: HBV replication in infected primary human hepatocytes (PHH), FXR agonist +/- IFN-alpha; format: cell-based; conditions: treated day 4 to 10 post-infection, harvested day 10, GW4064 1 or 10 uM, IFN-alpha 100 IU/mL
Method: FIG. 3. […] Freshly prepared and seeded PHH were infected with HBV at a multiplicity of infection of 250 GE/cell. From day 4 to 10 post-infection, cells were treated with […], +/−IFN-alpha at 100 IU/mL, or vehicle (NT), or IFN-alpha at 100 IU/mL alone. Cells and supernatants were harvested at day 10 for intracellular HBV RNA, viremia, and secreted antigens (HBsAg and HBeAg) quantification. Results are the mean+/−SD of one experiment performed with three biological replicates.
FIG. 4. […] Freshly prepared and seeded PHH were infected with HBV at a multiplicity of infection of 250 GE/cell. From day 4 to 10 post-infection, cells were treated with Vonafexor at 10 uM, or Nidufexor at 10 uM, or Tropifexor at 1 uM, or OCA at 10 uM, or GW4064 at 10 uM, +/−IFN-alpha (IFN) at 100 IU/mL, or vehicle, or IFN-alpha at 100 IU/mL alone. Supernatants were harvested at day 10 for secreted HBs antigen (HBsAg) quantification. Results are the mean+/−SEM of five experiments performed with three replicates.
Supernatants containing HBV particles were clarified (0.45 μm filter) and concentrated with 8% PEG 8000 (Sigma-Aldrich).
HBV DNA was quantified using the AmpliPrep/COBAS® TaqMan® HBV Test (Roche).
HBs and HBe antigens secreted in cells supernatant were quantified, after required dilutions, with Autobio kits (AutoBio, China) according to manufacturer's protocol.
Total RNA was prepared using NucleoSpin RNA Plus (Macherey-Nagel). After DNA digestion with TURBO DNase (Ambion), maximum 1000 ng RNA were reverse-transcribed using High-Capacity RNA-to-cDNA kit (Thermo Fisher Scientific). […] All assays were performed in triplicate.
HBs antigen secreted in cells supernatant were quantified, after required dilutions, with Autobio kits (AutoBio, China) according to manufacturer's protocol.
PHH are naturally susceptible to infection with HBV virions produced in vitro, leading to very high levels of replication of the virus.

[5] = change from baseline at end of 4-week treatment (day 29), ETV open-label 0.5 mg/day
[6] = change from baseline at day 29, EYP001a 1 × 100 mg/day oral monotherapy
[7] = change from baseline at day 29, EYP001a 1 × 200 mg/day oral monotherapy
[8] = change from baseline at day 29, EYP001a 1 × 400 mg/day oral monotherapy
[9] = change from baseline at day 29, EYP001a 2 × 200 mg/day oral monotherapy

C=C1[C@H](CO)[C@@H](O)C[C@@H]1n1cnc2c(=O)[nH]c(N)nc21 [ETV, entecavir, reference compound]
HBVpgRNA Mean (HBV [1]; [5]): −0.3 Log10 Copies mL
HBcrAg Mean (HBV [1]; [5]): 0.03 Log10 IU mL

O=C(O)c1cc2c(Cl)c(N3CCN(S(=O)(=O)c4c(Cl)cccc4Cl)CC3)ccc2o1 [EYP001a]
pruritus [2]: fewer pruritus
C4 (FXR): decreases
FGF19 (FXR): increases
HBV viral load (HBV [3]): reduces HBV viral load
HBVpgRNA Mean (HBV [1]; [6]): 0.5 Log10 Copies mL
HBcrAg Mean (HBV [1]; [6]): −0.3 Log10 IU mL
HBVpgRNA Mean (HBV [1]; [7]): 0.4 Log10 Copies mL
HBcrAg Mean (HBV [1]; [7]): 0.2 Log10 IU mL
HBVpgRNA Mean (HBV [1]; [8]): 0.2 Log10 Copies mL
HBcrAg Mean (HBV [1]; [8]): 0.02 Log10 IU mL
HBVpgRNA Mean (HBV [1]; [9]): −0.1 Log10 Copies mL
HBcrAg Mean (HBV [1]; [9]): 1.2 Log10 IU mL
mean HBsAg decrease (HBV [1]; end of treatment on day 29, 400 mg QD EYP001, p<0.05): −0.1 log 10 IU/mL

CC(C)c1onc(-c2c(Cl)cccc2Cl)c1COc1ccc(/C=C/c2cccc(C(=O)O)c2)c(Cl)c1 [GW4064, 3-[2-[2-Chloro-4-[[3-(2,6-dichlorophenyl)-5-(1-methylethyl)-4-isoxazolyl]methoxy]phenyl]ethenyl]benzoic acid]
HBeAg secretion [4]: reduce in a dose response manner
HBsAg secretion [4]: unable to significantly impact
intracellular HBV RNA level [4]: reduce in a dose response manner
viremia [4]: unable to significantly impact
